Measured values from article PMC11594329, “Development of LAT1-Selective Nuclear Medicine Therapeutics Using Astatine-211” (International Journal of Molecular Sciences, 2024).

Test system: PANC-1 tumor model
Test: Tissue distribution in nude mice (PANC-1 tumor model)
Assay type: in vivo, BALB/c nu/nu mice
Details: nude mice (PANC-1 tumor model)
Protocol: BALB/c nu/nu mice (male, 5 weeks old) were purchased from Japan SLC (Shizuoka, Japan) and subcutaneously transplanted at a density of 1 × 10^7 cells/mouse. PANC-1 cells that reached the logarithmic growth phase were transplanted subcutaneously by mixing a 1 × 10^8 cells/mL cell suspension with an equivalent volume of Matrigel (Corning, Corning, NY, USA) to obtain 1 × 10^7 cells per mouse. Experiments were performed after the size of the transplanted tumor had exceeded 50 mm^3. The doses in the distribution experiments were as follows: ^211At-AAMT-OH-L (0.501 ± 0.011 MBq/mouse, 19.91 ± 0.59 g, n = 3) and ^211At-AAMT-O-Me-L (0.384 ± 0.003 MBq/mouse, 19.18 ± 0.38 g, n = 6 for Table 3), ^211At-AAMT-O-Me-L (158.10 ± 2.94 kBq/mouse, 19.27 ± 0.64 g, n = 6) and ^211At-AAMT-O-Me-D (135.08 ± 2.35 kBq/mouse, 18.64 ± 0.97 g, n = 6), ^211At-AAMT-O-Et-L (0.682 ± 0.011 MBq/mouse, 20.25 ± 1.41 g, n = 6), ^211At-AAMT-O-Pr-L (0.927 ± 0.020 MBq/mouse, 21.74 ± 0.37 g, n = 6).

Question: Which results are given for `C[C@](N)(Cc1ccc(O)c([211At])c1)C(=O)O` [^211At-AAMT-OH-L, 3-[^211At] Astato-α-methyl-L-tyrosine]?
Answer: Tissue distribution, Bladder (24 h after injection): 1.01 ± 0.10 %ID/g; Tissue distribution, Blood (24 h after injection): 0.04 ± 0.02 %ID/g; Tissue distribution, Bone (24 h after injection): 4.29 ± 3.90 %ID/g; Tissue distribution, Brain (24 h after injection): 0.68 ± 0.16 %ID/g; Tissue distribution, Cecum (24 h after injection): 6.60 ± 2.78 %ID/g; Tissue distribution, Colon (24 h after injection): 1.03 ± 0.34 %ID/g; Tissue distribution, Heart (24 h after injection): 2.29 ± 1.20 %ID/g; Tissue distribution, Kidney (24 h after injection): 0.07 ± 0.02 %ID/g; Tissue distribution, Liver (24 h after injection): 1.02 ± 0.60 %ID/g; Tissue distribution, Lung (24 h after injection): 1.90 ± 0.55 %ID/g; Tissue distribution, Pancreas (24 h after injection): 2.39 ± 2.03 %ID/g; Tissue distribution, Salivary glands (24 h after injection): 0.42 ± 0.17 %ID/g; Tissue distribution, Small intestine (24 h after injection): 0.09 ± 0.01 %ID/g; Tissue distribution, Spleen (24 h after injection): 0.72 ± 0.22 %ID/g; Tissue distribution, Stomach (24 h after injection): 1.84 ± 0.81 %ID/g; Tissue distribution, Testis (24 h after injection): 0.57 ± 0.44 %ID/g; Tissue distribution, Thyroid (24 h after injection): 11.65 ± 4.36 %ID/g; Tissue distribution, Tumor (24 h after injection): 0.71 ± 0.46 %ID/g; Amount remaining in cecum relative to ^211At-AAMT-O-Me-L (after 24 h): 3.2 fold; Amount remaining in femur, including the bone marrow, relative to ^211At-AAMT-O-Me-L (after 24 h): 5.7 fold; Amount remaining in pancreas relative to ^211At-AAMT-O-Me-L (after 24 h): 4.1 fold; Amount remaining in thyroid relative to ^211At-AAMT-O-Me-L (after 24 h): 5.2 fold
